Measurements: patent publication US11590116B2 (THERAVANCE BIOPHARMA R&D IP, LLC, priority 2019, dated 2023)

What was measured:
[1] = test system: TGF-β-stimulated SMAD3 phosphorylation in BEAS-2B cells; assay: Cellular ALK5 potency assay, inhibition of TGF-β stimulated pSMAD3 formation in BEAS-2B cells; assay type: cell-based; details: Homo sapiens; inhibition of TGF-β stimulated pSMAD3 formation, BEAS-2B cells; read-out: BEAS2B pIC50 (converted)
How it was run: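 SMAD3 phosphorylation was measured by AlphaLISA after 30 min TGF-β stimulation (10 ng/mL final) of BEAS-2B cells preincubated 1 h with compound at 37 °C. Results given as pIC50.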

[2] = target: T1, recombinant human ALK5 (TGF-βR1) protein (Homo sapiens, UniProt P36897); assay: Biochemical ALK5 (TGF-βR1) assay to measure pKi (LANCE Ultra ULight kinase assay); details: apparent pKi from pIC50 by Cheng-Prusoff, read-out: ALK5 pKi (converted)
T1 construct: purchased Life Technologies PR9075A
T1 sequence (P36897 34-503): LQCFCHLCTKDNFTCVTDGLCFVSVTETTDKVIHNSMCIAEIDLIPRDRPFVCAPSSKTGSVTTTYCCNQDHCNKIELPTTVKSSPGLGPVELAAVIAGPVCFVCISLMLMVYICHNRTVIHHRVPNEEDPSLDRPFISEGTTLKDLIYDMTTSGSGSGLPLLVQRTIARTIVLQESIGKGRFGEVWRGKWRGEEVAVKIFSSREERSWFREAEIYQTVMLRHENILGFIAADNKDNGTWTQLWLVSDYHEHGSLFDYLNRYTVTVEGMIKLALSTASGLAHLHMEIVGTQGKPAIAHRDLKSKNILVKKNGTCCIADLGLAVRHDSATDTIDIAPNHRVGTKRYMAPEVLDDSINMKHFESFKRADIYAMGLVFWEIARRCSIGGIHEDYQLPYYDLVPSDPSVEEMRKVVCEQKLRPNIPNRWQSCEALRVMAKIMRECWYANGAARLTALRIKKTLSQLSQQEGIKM
How it was run: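 Dose range 10 μM–25 pM; enzyme + compound 60 min RT; ATP added (5× stock 125 μM, 2 mM DTT); 60 min 37 °C; stop with EDTA + Eu anti-phospho-Topo IIα Thr1342 Ab; TR-FRET ex 320/340, em 665 nm. 4-param pIC50 → pKi (Cheng-Prusoff).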

SMILES | Ki [2] | IC50 [1]
Cc1cccc(-c2nnn(Cc3ccccc3)c2-c2ccc3ncc(N4CCNCC4)cc3c2)n1 [Compound 382, 6-[3-benzyl-5-(6-methyl-2-pyridyl)triazol-4-yl]-3-piperazin-1-yl-quinoline] | 0.0398 to 0.316 nM | 25.1 to 158 nM
FC(F)(F)c1cccc(-c2n[nH]cc2-c2ccc3ncc(N4CCCNCC4)cc3n2)n1 [Compound 383, 7-(1,4-diazepan-1-yl)-2-[3-[6-(trifluoromethyl)-2-pyridyl]-1H-pyrazol-4-yl]-1,5-naphthyridine] | 0.398 to 3.16 nM | 200 to 1260 nM
CNC(=O)[C@@H]1CN(c2cnc3ccc(-c4nc[nH]c4-c4cccc(C)n4)cc3c2)CCN1 [Compound 384, (2S)-N-methyl-4-[6-[5-(6-methyl-2-pyridyl)-1H-imidazol-4-yl]-3-quinolyl]piperazine-2-carboxamide] | 0.0398 to 0.316 nM | 200 to 1260 nM
Cc1cccc(-c2n[nH]cc2-c2ccc3ncc(CCC(=O)N4CCOCC4)cc3n2)n1 [Compound 385, 3-[6-[3-(6-methyl-2-pyridyl)-1H-pyrazol-4-yl]-1,5-naphthyridin-3-yl]-1-morpholino-propan-1-one] | 0.398 to 3.16 nM | 25.1 to 158 nM
Cc1cccc(-c2n[nH]cc2-c2ccc3ncc(-c4cnn(C5CNC5)c4)cc3n2)n1 [Compound 386, 7-[1-(azetidin-3-yl)pyrazol-4-yl]-2-[3-(6-methyl-2-pyridyl)-1H-pyrazol-4-yl]-1,5-naphthyridine] | < 0.0316 nM | 25.1 to 158 nM
Cc1cccc(-c2[nH]cnc2-c2ccc3ncc(N4CCC5(CCNC5)C4)cc3c2)n1 (stereo not shown) [Compound 387, 3-(2,7-diazaspiro[4.4]nonan-2-yl)-6-[5-(6-methyl-2-pyridyl)-1H-imidazol-4-yl]quinoline] | < 0.0316 nM | 25.1 to 158 nM
Cc1cccc(-c2[nH]cnc2-c2ccc3ncc(N4CCC(NC(=O)[C@@H]5CCCN5)CC4)cc3c2)n1 [Compound 388, (2S)-N-[1-[6-[5-(6-methyl-2-pyridyl)-1H-imidazol-4-yl]-3-quinolyl]-4-piperidyl]pyrrolidine-2-carboxamide] | 0.0398 to 0.316 nM | 200 to 1260 nM
Cc1cccc(-c2[nH]ncc2-c2ccc3ncc(C(=O)OCCN4CCN(C(C)C)CC4)cc3n2)n1 [Compound 389, 2-(4-isopropylpiperazin-1-yl)ethyl 6-[5-(6-methyl-2-pyridyl)-1H-pyrazol-4-yl]-1,5-naphthyridine-3-carboxylate] | 0.0398 to 0.316 nM | 25.1 to 158 nM
CCN1CCN(c2cnc3ccc(-c4c[nH]nc4-c4cccc(C)n4)nc3c2)CC1 [Compound 390, 7-(4-ethylpiperazin-1-yl)-2-[3-(6-methyl-2-pyridyl)-1H-pyrazol-4-yl]-1,5-naphthyridine] | 0.0398 to 0.316 nM | 25.1 to 158 nM
Cc1nc(-c2n[nH]cc2-c2ccc3ncc(-c4cc5n(n4)CCNC5)cc3n2)ccc1F [Compound 391, 2-[3-(5-fluoro-6-methyl-2-pyridyl)-1H-pyrazol-4-yl]-7-(4,5,6,7-tetrahydropyrazolo[1,5-a]pyrazin-2-yl)-1,5-naphthyridine] | < 0.0316 nM | < 20 nM
Cc1cccc(-c2[nH]cnc2-c2ccc3ncc(C4=CCC5(CCNCC5)CC4)cc3c2)n1 [Compound 392, 9-(6-(5-(6-methylpyridin-2-yl)-1H-imidazol-4-yl)quinolin-3-yl)-3-azaspiro[5.5]undec-8-ene] | 0.0398 to 0.316 nM | 25.1 to 158 nM
Cc1cccc(-c2n[nH]cc2-c2ccc3ncc(-c4[nH]nc5c4CCN5)cc3n2)n1 [Compound 393, 2-[3-(6-methyl-2-pyridyl)-1H-pyrazol-4-yl]-7-(2,4,5,6-tetrahydropyrrolo[2,3-c]pyrazol-3-yl)-1,5-naphthyridine] | < 0.0316 nM | 25.1 to 158 nM
COc1[nH]nc(-c2cccc(C)n2)c1-c1ccc2ncc(NCCN3CCN(C(C)C)CC3)cc2n1 [Compound 394, N-[2-(4-isopropylpiperazin-1-yl)ethyl]-6-[5-methoxy-3-(6-methyl-2-pyridyl)-1H-pyrazol-4-yl]-1,5-naphthyridin-3-amine] | 0.0398 to 0.316 nM | 200 to 1260 nM

Continued, in another order:

Ki [2] | SMILES | IC50 [1]
0.0398 to 0.316 nM | Cc1cccc(-c2[nH]cnc2-c2ccc3ncc(-c4cncc(C(=O)O[C@@H]5CCN(C)C5)c4)cc3c2)n1 [Compound 396, [(3R)-1-methylpyrrolidin-3-yl] 5-[6-[5-(6-methyl-2-pyridyl)-1H-imidazol-4-yl]-3-quinolyl]pyridine-3-carboxylate] | 25.1 to 158 nM
< 0.0316 nM | Cc1cccc(-c2[nH]cnc2-c2ccc3ncc(-c4cccc(N5CC(N)C5)c4)cc3c2)n1 [Compound 397, 1-[3-[6-[5-(6-methyl-2-pyridyl)-1H-imidazol-4-yl]-3-quinolyl]phenyl]azetidin-3-amine] | 25.1 to 158 nM
< 0.0316 nM | Cc1cccc(-c2n[nH]cc2-c2ccc3ncc(-c4ccccc4)cc3n2)n1 [Compound 398, 2-[3-(6-methyl-2-pyridyl)-1H-pyrazol-4-yl]-7-phenyl-1,5-naphthyridine] | < 20 nM
< 0.0316 nM | Cc1cccc(-c2nnn(C)c2-c2ccc3ncc(-c4cn[nH]c4)cc3c2)n1 [Compound 399, 6-[3-methyl-5-(6-methyl-2-pyridyl)triazol-4-yl]-3-(1H-pyrazol-4-yl)quinoline] | < 20 nM
0.0398 to 0.316 nM | Cc1cccc(-c2n[nH]cc2-c2ccc3ncc(N4CCCN(C5CCCC5)CC4)cc3n2)n1 [Compound 400, 7-(4-cyclopentyl-1,4-diazepan-1-yl)-2-[3-(6-methyl-2-pyridyl)-1H-pyrazol-4-yl]-1,5-naphthyridine] | 200 to 1260 nM
< 0.0316 nM | CNCCn1cc(-c2cnc3ccc(-c4nc[nH]c4-c4ccc(F)c(C)n4)cc3c2)cn1 [Compound 401, 2-[4-[6-[5-(5-fluoro-6-methyl-2-pyridyl)-1H-imidazol-4-yl]-3-quinolyl]pyrazol-1-yl]-N-methyl-ethanamine] | 25.1 to 158 nM
0.0398 to 0.316 nM | Cc1cccc(-c2nn3c(c2-c2ccc4ncc(-c5cn[nH]c5)cc4c2)CNCC3)n1 [Compound 402, 6-[2-(6-methyl-2-pyridyl)-4,5,6,7-tetrahydropyrazolo[1,5-a]pyrazin-3-yl]-3-(1H-pyrazol-4-yl)quinoline] | 25.1 to 158 nM
0.0398 to 0.316 nM | Cc1cccc(-c2n[nH]cc2-c2ccc3ncc(N4CCC(N(C)CC(C)C)CC4)cc3n2)n1 [Compound 403, N-isobutyl-N-methyl-1-[6-[3-(6-methyl-2-pyridyl)-1H-pyrazol-4-yl]-1,5-naphthyridin-3-yl]piperidin-4-amine] | 25.1 to 158 nM
0.0398 to 0.316 nM | Cc1cccc(-c2[nH]cnc2-c2ccc3ncc(NCCN4CCC5(CC4)CNC5)cc3c2)n1 [Compound 404, N-[2-(2,7-diazaspiro[3.5]nonan-7-yl)ethyl]-6-[5-(6-methyl-2-pyridyl)-1H-imidazol-4-yl]quinolin-3-amine] | 200 to 1260 nM
< 0.0316 nM | Cc1cccc(-c2[nH]cnc2-c2ccc3ncc(-c4cnn(C5CCCNC5)c4)cc3c2)n1 (stereo not shown) [Compound 405, 6-[5-(6-methyl-2-pyridyl)-1H-imidazol-4-yl]-3-[1-(3-piperidyl)pyrazol-4-yl]quinoline] | 25.1 to 158 nM
0.0398 to 0.316 nM | Cc1cccc(-c2[nH]cnc2-c2ccc3ncc(NC(=O)C4CN5CCN4CC5)cc3c2)n1 (stereo not shown) [Compound 406, N-[6-[5-(6-methyl-2-pyridyl)-1H-imidazol-4-yl]-3-quinolyl]-1,4-diazabicyclo[2.2.2]octane-2-carboxamide] | 200 to 1260 nM
0.0398 to 0.316 nM | CNCCn1cc(-c2cnc3ccc(-c4nc[nH]c4-c4cccc(C)n4)nc3c2)cn1 [Compound 408, N-methyl-2-[4-[6-[5-(6-methyl-2-pyridyl)-1H-imidazol-4-yl]-1,5-naphthyridin-3-yl]pyrazol-1-yl]ethanamine] | 25.1 to 158 nM
0.0398 to 0.316 nM | Cc1cccc(-c2[nH]nnc2-c2ccc3ncc(N4CCNCC4)cc3c2)n1 [Compound 409, 6-[5-(6-methyl-2-pyridyl)-1H-triazol-4-yl]-3-piperazin-1-yl-quinoline] | 25.1 to 158 nM
0.0398 to 0.316 nM | Cc1cccc(-c2[nH]cnc2-c2ccc3ncc(C4=CCNC4)cc3n2)n1 [Compound 410, 7-(2,5-dihydro-1H-pyrrol-3-yl)-2-[5-(6-methyl-2-pyridyl)-1H-imidazol-4-yl]-1,5-naphthyridine] | 25.1 to 158 nM
0.0398 to 0.316 nM | Cc1cccc(-c2nnn(Cc3ccccc3)c2-c2ccc3ncc(N4CCCNCC4)cc3c2)n1 [Compound 411, 6-[3-benzyl-5-(6-methyl-2-pyridyl)triazol-4-yl]-3-(1,4-diazepan-1-yl)quinoline] | 25.1 to 158 nM
0.0398 to 0.316 nM | Cc1cccc(-c2[nH]cnc2-c2ccc3ncc(N4CCNCC4)cc3c2)n1 [Compound 412, 6-[5-(6-methyl-2-pyridyl)-1H-imidazol-4-yl]-3-piperazin-1-yl-quinoline] | < 20 nM
